Test results from PubChem BioAssay (NCI).
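Assay format: 96-well plates, 48-hour exposure. TGI: concentration producing complete growth inhibition.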

How the values were obtained:
Assay in all cases: NCI tumour cell line growth inhibition, 48 h
[1] = system: BT-549 breast
[2] = system: CCRF-CEM leukemia
[3] = system: MCF7 breast
[4] = system: MDA-MB-231 breast
[5] = system: MDA-MB-435
[6] = system: MDA-N
[7] = system: NCI/ADR-RES ovarian
[8] = system: OVCAR-4 ovarian
[9] = system: OVCAR-8 ovarian
[10] = system: SF-539 CNS
[11] = system: SK-MEL-2 melanoma
[12] = system: SK-MEL-28 melanoma
[13] = system: SK-MEL-5 melanoma
[14] = system: SN12C renal
[15] = system: SNB-75 CNS
[16] = system: U251 CNS
[17] = system: UO-31 renal

SMILES	TGI [1] [µM]	TGI [2] [µM]	TGI [3] [µM]	TGI [4] [µM]	TGI [5] [µM]	TGI [6] [µM]	TGI [7] [µM]	TGI [8] [µM]	TGI [9] [µM]	TGI [10] [µM]	TGI [11] [µM]	TGI [12] [µM]	TGI [13] [µM]	TGI [14] [µM]	TGI [15] [µM]	TGI [16] [µM]	TGI [17] [µM]
C#C[C@]1(O)CC[C@H]2[C@@H]3CCC4=C/C(=N/NC(=O)c5cccc6cc7ccccc7nc56)CC[C@@H]4[C@H]3CC[C@@]21CC	> 100	> 100	> 100	> 100	> 100	> 100	> 100	> 100	> 100	> 100	> 100	> 100	63.7	> 100	> 100	> 100	
O=[N+]([O-])c1cc2c(c([N+](=O)[O-])c1)NCc1ccccc1O2	> 100	> 100	> 100	> 100	> 100	> 100	> 100	> 100	> 100	> 100	> 100	> 100	> 100	> 100	48.2	> 100	> 100
COc1cccc(-c2nc3ccccc3c(=O)[nH]2)c1OC	> 100	> 100	> 100	> 100	> 100	> 100	> 100	> 100	> 100		> 100		> 100	> 100	> 100	> 100	> 100
CN1CCCOC(c2ccc([N+](=O)[O-])cc2)O1 (stereo not drawn)	> 100	> 100	> 100	> 100	> 100	> 100	> 100	> 100	> 100	> 100	> 100	> 100	> 100	> 100	> 100	> 100	> 100
CN(C)CCCNc1c(C#N)[n+]([O-])c2cc(Cl)ccc2[n+]1[O-]	31.1	42	> 52.7	37.2	> 67.2	> 59.9	> 57.3	14.2	> 51.3	47.4	36.4	> 100	10.9	53.3	> 100	> 66.6	> 46.3
Cc1c2c(Cl)c3c(c(Cl)c2c(C)c2c(Cl)c4c(c(Cl)c12)C(c1ccccc1)(c1ccccc1)C4(c1ccccc1)c1ccccc1)C(c1ccccc1)(c1ccccc1)C3(c1ccccc1)c1ccccc1	> 100	> 100	> 100	> 100	> 100	> 100	> 100	> 100	> 100	> 100	> 100	> 100	> 100	> 100	> 100	> 100	> 100
Nc1nc2n[nH]nc2c(=O)[nH]1	37.8	> 100	> 100	> 100	29	15.4	> 100	> 100	> 100	1.96	1.69	9.4	13.8	> 100	> 66.8	> 100	29.3
O=C1C=CC2(O)OCCN(CCO)C2=C1 (stereo not drawn) (tested in a mixture with another compound)	> 100	> 100	> 100	> 100	> 100	> 100	> 100	> 100	> 100		> 100	> 100	> 100	> 100	> 100	> 100	> 100
C[N+]1(Cc2ccc(Cl)c(Cl)c2)CCCC1C1CCCN(Cc2ccc(Cl)c(Cl)c2)C1 (stereo not drawn)	> 100		> 100	> 100	> 100	> 100	> 100	> 100	> 100	> 100	> 100	> 100	> 100	> 100	> 100	> 100	> 100
COc1cccc(N2C(=O)/C(=C\c3ccccc3)SC2c2cc(OC)c(OC)c(OC)c2)c1 (stereo not drawn)	> 100	> 100	> 100	> 100	> 100	40.5	> 100	> 100	> 100		> 100	> 100	> 100	> 100	57.3	> 100	> 100
O=C(Cc1ccc(Cl)cc1)Nc1ccc2oc(-c3ccccc3)nc2c1	> 100	> 100	> 100	> 100	> 100	> 100	> 100	> 100	> 100	> 100	> 100	> 100	> 100	> 100	72.1	> 100	
COc1ccc(N2C(=O)C(C)SC2c2cc3cc(Br)ccc3nc2Cl)cc1 (stereo not drawn)	99.7	> 100	> 100	> 100	50.5	> 100	85.8	> 100	> 100	55.7	48.4	> 100	> 100	> 100	> 100		> 100
CC1=C(C(=O)N(C(C)C)C(C)C)CC(C(=O)N(C(C)C)C(C)C)=C(C)N1	> 100	> 100	> 100	> 100	> 100	> 100	> 100	> 100	> 100	> 100	> 100		> 100	> 100	> 100	> 100	> 100
C[C@]12C[C@@H](c3ccccc3)Nc3ccccc3N1C(c1ccccc1)=NO2	90.3	74.3	> 100	> 100	58.5	68.7	> 100	81.9	> 100	> 100	76.3		30.8	> 100	69.4	> 100	89.5
CC(C)=c1sc(=C(C)C)c2c1=NC(C)(C)N=2	> 100	> 100	> 100	> 100	> 100	> 100	> 100	> 100	> 100	> 100	> 100	> 100	> 100	> 100		> 100	
O=c1n(-c2ccccc2)c(=O)n2n1C1Cc3ccccc3C12 (stereo not drawn)	> 100	> 100	> 100	> 100	> 100	> 100	> 100		> 100	> 100	> 100	> 100	> 100	> 100	> 100	> 100	> 100
COc1cc(/C=C2\C(=O)N(c3ccccc3Cl)C(c3ccccc3)S2(=O)=O)cc(OC)c1OC (stereo not drawn)	> 100	48.9	> 100	> 100	> 100	42.5	> 100	> 100	> 100	38.3	> 100	> 100	45.5	60.6		81.8	> 100
CCOC(=O)[C@@H]1CCN2CN(c3ccc(OC)cc3)N=C(c3ccccc3)[C@@]12c1ccccc1	55.2	> 100	50	> 100	> 100	> 100	67.9	> 100	61.3		46.1	56	30.5	34.7	57.7	79.6	77.2
Cc1ccc(/C=C2\CN(C)CC3C2=NN(c2ccccc2)C3c2ccc(C)cc2)cc1 (stereo not drawn)	> 100	95.7	> 100	> 100	> 100	> 100	> 100	> 100	> 100		> 100	> 100	> 100	> 100		> 100	> 100
COC(=O)C(Cc1ccc(Oc2cc(CC(NC(=O)c3ccccc3)C(=O)OC)ccc2OC)cc1)NC(=O)c1ccccc1 (stereo not drawn)	> 81.3		> 100	> 78.8	> 63.5	34	> 100	> 72.5	> 60.9	> 60.2	> 74	> 52.4	32.9	21.3	> 100	> 100	24.2
O=C(c1ccccc1)N1OCCC1Nc1ccc(Br)cc1 (stereo not drawn)	> 10	> 10	> 10	> 10	> 10	> 10	> 10	> 10	> 10	> 10	> 10	> 10	> 10	> 10	> 10		8.81
